This assay concerns the target T1, Recombinant human CBP containing the bromodomain (CBP-BD (1043-1159)) (Homo sapiens, UniProt Q92793).
T1 construct: Recombinant human CBP bromodomain (CBP-BD (1043-1159)); made in house; host or cells: E. coli BL21-CodonPlus (DE3), modified pET vector
Description: CBP Alphascreen binding assay. The settings on record: read-out: CREBBP (CBP) IC50. A digest of the protocol:
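Buffer: 50 mM HEPES pH 7.5, 50 mM NaCl, 0.01% BSA, 0.01% Triton X-100, 2 mM DTT. The signal was normalised to plate controls and fitted with a four-parameter curve to give IC50.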

This is an account of results in patent publication US11446287B2, “Compounds and methods for EP300 or CBP modulation and indications therefor” (Opna Immuno-Oncology SA, priority 2019, dated 2022).

T1 sequence (Q92793 1081-1197): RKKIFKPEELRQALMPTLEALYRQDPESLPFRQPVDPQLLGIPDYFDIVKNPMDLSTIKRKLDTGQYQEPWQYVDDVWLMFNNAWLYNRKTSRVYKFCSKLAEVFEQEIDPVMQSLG

On to `Cc1noc(C)c1-c1cnc2c(c1)c(-c1cccc(S(=O)(=O)NC3CC3)c1)cn2Cc1ccccc1` [P-0083, 3-(1-benzyl-5-(3,5-dimethylisoxazol-4-yl)-1H-pyrrolo[2,3-b]pyridin-3-yl)-N-cyclopropylbenzenesulfonamide], for which the half-inhibitory concentration (IC50) was in the range of 1000 to 8000 nM. The figure for `Cc1noc(C)c1-c1cnc2c(C(=O)C3CC3)c(O)n(-c3ccnc(C(=O)O)c3)c2c1` [P-0084, 4-(3-(cyclopropanecarbonyl)-6-(3,5-dimethylisoxazol-4-yl)-2-hydroxy-1H-pyrrolo[3,2-b]pyridin-1-yl)picolinic acid] is 0.1 to 1000 nM; for `Cc1noc(C)c1-c1cnc2c(c1)c(-c1cccc(C(=O)O)c1)cn2C(=O)c1ccccc1` [P-0085, 3-(1-benzoyl-5-(3,5-dimethylisoxazol-4-yl)-1H-pyrrolo[2,3-b]pyridin-3-yl)benzoic acid] it is 1000 to 8000 nM. For `Cc1noc(C)c1-c1cnc2c(CC3CCC3)cn(-c3c(C(=O)O)ccc(Br)c3F)c2c1` [P-0086, 4-bromo-2-(3-(cyclobutylmethyl)-6-(3,5-dimethylisoxazol-4-yl)-1H-pyrrolo[3,2-b]pyridin-1-yl)-3-fluorobenzoic acid] the value was 0.1 to 1000 nM. For `COc1c(-n2cc(CC3CCC3)c3ncc(-c4c(C)noc4C)cc32)ccc(C(=O)O)c1F` [P-0087, 4-(3-(cyclobutylmethyl)-6-(3,5-dimethylisoxazol-4-yl)-1H-pyrrolo[3,2-b]pyridin-1-yl)-2-fluoro-3-methoxybenzoic acid] the value was 0.1 to 1000 nM. For `Cc1noc(C)c1-c1cnc2c(C(=O)c3cccc(Cl)c3)cn(-c3ccnc(C(=O)O)c3)c2c1` [P-0088, 4-(3-(3-chlorobenzoyl)-6-(3,5-dimethylisoxazol-4-yl)-1H-pyrrolo[3,2-b]pyridin-1-yl)picolinic acid], the IC50 was in the range of 0.1 to 1000 nM. With `Cc1noc(C)c1-c1cnc2c(C(=O)c3ccccc3Cl)cn(-c3ccnc(C(=O)O)c3)c2c1` [P-0089, 4-(3-(2-chlorobenzoyl)-6-(3,5-dimethylisoxazol-4-yl)-1H-pyrrolo[3,2-b]pyridin-1-yl)picolinic acid], the 50% inhibitory concentration (IC50) fell in the range of 0.1 to 1000 nM. The figure for `Cc1noc(C)c1-c1cnc2c(Cc3cccc(Cl)c3)cn(-c3ccnc(C(=O)O)c3)c2c1` [P-0090, 4-(3-(3-chlorobenzyl)-6-(3,5-dimethylisoxazol-4-yl)-1H-pyrrolo[3,2-b]pyridin-1-yl)picolinic acid] is 0.1 to 1000 nM; for `Cc1noc(C)c1-c1cnc2c(Cc3ccccc3Cl)cn(-c3ccnc(C(=O)O)c3)c2c1` [P-0091, 4-(3-(2-chlorobenzyl)-6-(3,5-dimethylisoxazol-4-yl)-1H-pyrrolo[3,2-b]pyridin-1-yl)picolinic acid] it is 0.1 to 1000 nM. For `Cc1noc(C)c1-c1cnc2c(c1)c(-c1cccc(C(=O)NS(C)(=O)=O)c1)cn2Cc1ccccc1` [P-0092, 3-(1-benzyl-5-(3,5-dimethylisoxazol-4-yl)-1H-pyrrolo[2,3-b]pyridin-3-yl)-N-(methylsulfonyl)benzamide] the value was 1000 to 8000 nM. For `Cc1noc(C)c1-c1cnc2c(c1)c(C1=CCC(C(=O)O)CC1)cn2Cc1ccccc1` (centres unmarked) [P-0093, 4-(1-benzyl-5-(3,5-dimethylisoxazol-4-yl)-1H-pyrrolo[2,3-b]pyridin-3-yl)cyclohex-3-ene-1-carboxylic acid] the value was 0.1 to 1000 nM. For `Cc1noc(C)c1-c1cnc2c(c1)c(-c1c(F)cc(C(=O)O)cc1F)cn2C(C)c1ccccn1` (centres unmarked) [P-0094, 4-(5-(3,5-dimethylisoxazol-4-yl)-1-(1-(pyridin-2-yl)ethyl)-1H-pyrrolo[2,3-b]pyridin-3-yl)-3,5-difluorobenzoic acid], the IC50 was 0.1 to 1000 nM.

Regarding `Cc1noc(C)c1-c1cnc2c(c1)c(-c1c(Cl)cc(C(=O)O)cc1Cl)cn2C(C)c1ccccn1` (centres unmarked) [P-0095, 3,5-dichloro-4-(5-(3,5-dimethylisoxazol-4-yl)-1-(1-(pyridin-2-yl)ethyl)-1H-pyrrolo[2,3-b]pyridin-3-yl)benzoic acid], the IC50 fell in the range of 0.1 to 1000 nM. The figure for `Cc1noc(C)c1-c1cnc2c(c1)c(-c1c(F)ccc(NS(C)(=O)=O)c1F)cn2C(C)c1ccccn1` (centres unmarked) [P-0096, N-(3-(5-(3,5-dimethylisoxazol-4-yl)-1-(1-(pyridin-2-yl)ethyl)-1H-pyrrolo[2,3-b]pyridin-3-yl)-2,4-difluorophenyl)methanesulfonamide] is 1000 to 8000 nM.
